From patent publication US9815832B2 (priority 2013, dated 2017) come the findings set out here.

The structures appear in SMILES notation. pIC50: −log10 of the molar value. Counter-ions that a name gives are not always drawn.

The experiment deals with human recombinant PDE4B (Homo sapiens (Human), UniProt Q07343, S133E/S654A/S659A/S661A). Conditions: read-out: Human PDE4B FL.
Sequence of human recombinant PDE4B (Q07343 122-736 S133E/S654A/S659A/S661A): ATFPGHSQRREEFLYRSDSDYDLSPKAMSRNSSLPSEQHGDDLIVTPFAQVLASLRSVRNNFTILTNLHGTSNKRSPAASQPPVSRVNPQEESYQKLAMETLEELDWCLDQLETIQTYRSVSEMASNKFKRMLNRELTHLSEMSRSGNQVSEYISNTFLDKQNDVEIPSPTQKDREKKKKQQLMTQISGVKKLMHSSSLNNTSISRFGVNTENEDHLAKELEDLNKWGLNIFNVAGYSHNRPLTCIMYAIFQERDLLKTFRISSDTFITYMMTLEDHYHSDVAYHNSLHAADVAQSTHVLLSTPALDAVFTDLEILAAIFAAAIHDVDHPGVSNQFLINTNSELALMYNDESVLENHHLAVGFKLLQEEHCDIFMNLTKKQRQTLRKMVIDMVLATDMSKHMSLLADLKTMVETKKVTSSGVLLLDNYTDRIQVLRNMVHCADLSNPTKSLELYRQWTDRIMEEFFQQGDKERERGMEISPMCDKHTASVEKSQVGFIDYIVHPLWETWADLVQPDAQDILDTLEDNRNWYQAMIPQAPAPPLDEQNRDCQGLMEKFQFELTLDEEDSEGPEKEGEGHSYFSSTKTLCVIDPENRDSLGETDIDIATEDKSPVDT
Procedure: Reactions are incubated for 30 min at 25° C. The addition of 20 μL of 8 mg/mL yitrium silicate SPA beads (PerkinElmer) stops the reaction. The plates are sealed (TopSeal, PerkinElmer) and the beads are allowed to settle for 8 hrs, after which they are read on the Trilux Microbeta overnight.
With `CCCNC(=O)c1nc2cccnc2n1-c1ccc(Cl)c(F)c1` [Example 6, 3-(4-Chloro-3-fluorophenyl)-N-propyl-3H-imidazo[4,5-b]pyridine-2-carboxamide], the pIC50 is 7.42.
Next, `CN(C)C(=O)c1nc2cccnc2n1-c1ccc(Cl)c(F)c1` [Example 11, 3-(4-Chloro-3-fluorophenyl)-N,N-dimethyl-3H-imidazo[4,5-b]pyridine-2-carboxamide]: 6.39; `O=C(c1nc2cccnc2n1-c1cc(F)c(Cl)cc1F)N1CCC1` [Example 12, Azetidin-1-yl[3-(4-chloro-2,5-difluorophenyl)-3H-imidazo[4,5-b]pyridin-2-yl]methanone, trifluoroacetate salt]: 7.00.
Next, `CCCNC(=O)c1nc2cccnc2n1-c1ccc(Cl)cc1` [Example 13, 3-(4-Chlorophenyl)-N-propyl-3H-imidazo[4,5-b]pyridine-2-carboxamide]: 6.03; `Cn1ccc(NC(=O)c2nc3cccnc3n2C2CCCC2)n1` [Example 14, 3-Cyclopentyl-N-(1-methyl-1H-pyrazol-3-yl)-3H-imidazo[4,5-b]pyridine-2-carboxamide]: 6.09.
The result for `O=C(NC1CC1)c1nc2cccnc2n1C1CCOCC1` [Example 15, N-Cyclopropyl-3-(tetrahydro-2H-pyran-4-yl)-3H-imidazo[4,5-b]pyridine-2-carboxamide] reads 5.76.
For `O=C(c1nc2cccnc2n1-c1ccc(Cl)cc1)N1CCC1` [Example 16, Azetidin-1-yl[3-(4-chlorophenyl)-3H-imidazo[4,5-b]pyridin-2-yl]methanone], the pIC50 is 6.71.
Next, `NC(=O)c1nc2cccnc2n1-c1ccc(Cl)c(F)c1` [Example 17, 3-(4-Chloro-3-fluorophenyl)-3H-imidazo[4,5-b]pyridine-2-carboxamide]: 5.07.
On to `Cc1ccc(-n2c(C(=O)N3CCC3)nc3cccnc32)cc1F` [Example 18, Azetidin-1-yl[3-(3-fluoro-4-methylphenyl)-3H-imidazo[4,5-b]pyridin-2-yl]methanone], for which the pIC50 is 7.31.
For `Cc1ccc(-n2c(C(=O)N3CC(F)C3)nc3cccnc32)cc1F` [Example 19, (3-Fluoroazetidin-1-yl)[3-(3-fluoro-4-methylphenyl)-3H-imidazo[4,5-b]pyridin-2-yl]methanone], the pIC50 was 6.55.
The result for `N#Cc1c(F)cc(-n2c(C(=O)NC3CC3)nc3cccnc32)cc1F` [Example 20, 3-(4-Cyano-3,5-difluorophenyl)-N-cyclopropyl-3H-imidazo[4,5-b]pyridine-2-carboxamide] reads 7.86; that for `O=C(c1nc2cccnc2n1-c1ccc(Cl)c(F)c1)N1CC(F)C1` [Example 21, [3-(4-Chloro-3-fluorophenyl)-3H-imidazo[4,5-b]pyridin-2-yl](3-fluoroazetidin-1-yl)methanone], 7.37; that for `O=C(c1nc2cccnc2n1-c1ccc(Cl)cc1F)N1CCC1` [Example 22, Azetidin-1-yl[3-(4-chloro-2-fluorophenyl)-3H-imidazo[4,5-b]pyridin-2-yl]methanone], 6.56.
For `O=C(NC1CC1)c1nc2cccnc2n1-c1ccc(Cl)cc1F` [Example 23, 3-(4-Chloro-2-fluorophenyl)-N-cyclopropyl-3H-imidazo[4,5-b]pyridine-2-carboxamide], the pIC50 is 6.20.
Regarding `Cn1ccc(NC(=O)c2nc3cccnc3n2-c2ccc(Cl)cc2)n1` [Example 24, 3-(4-Chlorophenyl)-N-(1-methyl-1H-pyrazol-3-yl)-3H-imidazo[4,5-b]pyridine-2-carboxamide], the pIC50 was 6.68.
For `O=C(c1nc2cccnc2n1-c1ccc(Cl)cc1F)N1CC(F)C1` [Example 25, [3-(4-Chloro-2-fluorophenyl)-3H-imidazo[4,5-b]pyridin-2-yl](3-fluoroazetidin-1-yl)methanone], the pIC50 was 6.04.
Turning to `Cc1cc(Cl)ccc1-n1c(C(=O)NC2CC2)nc2cccnc21` [Example 26, 3-(4-Chloro-2-methylphenyl)-N-cyclopropyl-3H-imidazo[4,5-b]pyridine-2-carboxamide], the pIC50 was 6.50.
As for `Cc1ccc(-n2c(C(=O)NC3CC3)nc3cccnc32)cc1` [Example 29, N-Cyclopropyl-3-(4-methylphenyl)-3H-imidazo[4,5-b]pyridine-2-carboxamide], the pIC50 is 6.65.
The result for `O=C(NC1CC1)c1nc2cccnc2n1-c1cc(F)c(F)c(F)c1` [Example 30, N-Cyclopropyl-3-(3,4,5-trifluorophenyl)-3H-imidazo[4,5-b]pyridine-2-carboxamide, trifluoroacetate salt] reads 8.24; that for `Cc1cc(Cl)ccc1-n1c(C(=O)N2CCC2)nc2cccnc21` [Example 34, Azetidin-1-yl[3-(4-chloro-2-methylphenyl)-3H-imidazo[4,5-b]pyridin-2-yl]methanone], 6.40.
`Cc1cc(Cl)ccc1-n1c(C(=O)N2CC(F)C2)nc2cccnc21` [Example 35, [3-(4-Chloro-2-methylphenyl)-3H-imidazo[4,5-b]pyridin-2-yl](3-fluoroazetidin-1-yl)methanone]: the pIC50 was 5.95.
With `O=C(NC1CC1)c1nc2cccnc2n1-c1cncc(Cl)c1` [Example 37, 3-(5-Chloropyridin-3-yl)-N-cyclopropyl-3H-imidazo[4,5-b]pyridine-2-carboxamide], the pIC50 was 6.39.
With `O=C(c1nc2cccnc2n1-c1cncc(Cl)c1)N1CCC1` [Example 38, Azetidin-1-yl[3-(5-chloropyridin-3-yl)-3H-imidazo[4,5-b]pyridin-2-yl]methanone], the pIC50 is 6.33.
Next, `N#Cc1ccc(-n2c(C(=O)NC3CC3)nc3cccnc32)cn1` [Example 39, 3-(6-Cyanopyridin-3-yl)-N-cyclopropyl-3H-imidazo[4,5-b]pyridine-2-carboxamide]: 6.44; `N#Cc1ccc(-n2c(C(=O)NC3CC3)nc3cccnc32)cc1` [Example 42, 3-(4-Cyanophenyl)-N-cyclopropyl-3H-imidazo[4,5-b]pyridine-2-carboxamide]: 6.56.
The result for `O=C(NC1CC1)c1nc2cccnc2n1-c1ccc(F)cc1F` [Example 43, N-Cyclopropyl-3-(2,4-difluorophenyl)-3H-imidazo[4,5-b]pyridine-2-carboxamide] reads 6.03; that for `Cc1ccc(F)cc1-n1c(C(=O)NC2CC2)nc2cccnc21` [Example 44, N-Cyclopropyl-3-(5-fluoro-2-methylphenyl)-3H-imidazo[4,5-b]pyridine-2-carboxamide], 5.78; that for `O=C(NC1CC1)c1nc2cccnc2n1C1Cc2ccccc2C1` [Example 47, N-Cyclopropyl-3-(2,3-dihydro-1H-inden-2-yl)-3H-imidazo[4,5-b]pyridine-2-carboxamide], 5.90.
The result for `COc1cc(-n2c(C(=O)NC3CC3)nc3cccnc32)ccc1C` [Example 50, N-Cyclopropyl-3-(3-methoxy-4-methylphenyl)-3H-imidazo[4,5-b]pyridine-2-carboxamide] reads 6.47; that for `N#Cc1cccc(-n2c(C(=O)NC3CC3)nc3cccnc32)c1` [Example 53, 3-(3-Cyanophenyl)-N-cyclopropyl-3H-imidazo[4,5-b]pyridine-2-carboxamide], 6.54; that for `COc1cc(-n2c(C(=O)NC3CC3)nc3cccnc32)ccc1F` [Example 55, N-Cyclopropyl-3-(4-fluoro-3-methoxyphenyl)-3H-imidazo[4,5-b]pyridine-2-carboxamide], 6.52.
In the case of `O=C(NC1CC1)c1nc2cccnc2n1-c1ccccc1` [Example 57, N-Cyclopropyl-3-phenyl-3H-imidazo[4,5-b]pyridine-2-carboxamide], the pIC50 is 5.94.
Turning to `COc1ccc(-n2c(C(=O)NC3CC3)nc3cccnc32)cc1` [Example 58, N-Cyclopropyl-3-(4-methoxyphenyl)-3H-imidazo[4,5-b]pyridine-2-carboxamide], the pIC50 is 6.30.
Next, `Cc1ccc(-n2c(C(=O)NC3CC3)nc3cccnc32)c(C)c1` [Example 59, N-Cyclopropyl-3-(2,4-dimethylphenyl)-3H-imidazo[4,5-b]pyridine-2-carboxamide]: 5.99; `Cc1cc(F)ccc1-n1c(C(=O)NC2CC2)nc2cccnc21` [Example 60, N-Cyclopropyl-3-(4-fluoro-2-methylphenyl)-3H-imidazo[4,5-b]pyridine-2-carboxamide]: 5.92.
Next, `O=C(NC1CC1)c1nc2cccnc2n1-c1ccc2c(c1)COC2` [Example 61, N-Cyclopropyl-3-(1,3-dihydro-2-benzofuran-5-yl)-3H-imidazo[4,5-b]pyridine-2-carboxamide]: 5.80.
In the case of `O=C(NC1CC1)c1nc2cccnc2n1-c1ccc(F)c(F)c1` [Example 62, N-Cyclopropyl-3-(3,4-difluorophenyl)-3H-imidazo[4,5-b]pyridine-2-carboxamide], the pIC50 is 7.46.
Next, `O=C(NC1CC1)c1nc2cccnc2n1-c1cc(Cl)cc(Cl)c1` [Example 63, N-Cyclopropyl-3-(3,5-dichlorophenyl)-3H-imidazo[4,5-b]pyridine-2-carboxamide]: 7.17; `O=C(NC1CC1)c1nc2cccnc2n1-c1ccc2c(c1)CCC2` [Example 64, N-Cyclopropyl-3-(2,3-dihydro-1H-inden-5-yl)-3H-imidazo[4,5-b]pyridine-2-carboxamide]: 6.69; `O=C(NC1CC1)c1nc2cccnc2n1-c1cccc(F)c1` [Example 65, N-Cyclopropyl-3-(3-fluorophenyl)-3H-imidazo[4,5-b]pyridine-2-carboxamide]: 6.73.
The result for `Cc1ccc(-n2c(C(=O)NC3CC3)nc3cccnc32)c(F)c1` [Example 67, N-Cyclopropyl-3-(2-fluoro-4-methylphenyl)-3H-imidazo[4,5-b]pyridine-2-carboxamide] reads 6.21.
Next, `Cc1cccc(-n2c(C(=O)NC3CC3)nc3cccnc32)c1` [Example 70, N-Cyclopropyl-3-(3-methylphenyl)-3H-imidazo[4,5-b]pyridine-2-carboxamide]: 6.38.
